# Results: paper PMC9097471, “Development of Selective Phosphatidylinositol 5-Phosphate 4-Kinase γ Inhibitors with a Non-ATP-competitive, Allosteric Binding Mode” (Journal of Medicinal Chemistry, 2022)
# Like-named read-outs stand apart in the source and are kept apart here.
# How the values were obtained:
# [1] = biological target: T1, PI5P4Kγ-WT (Homo sapiens, UniProt Q8TBX8); assay: InCell Pulse cellular target engagement (thermal stabilisation) in HEK293 cells; type: cell-based; details: InCell Pulse, new data
# T1 sequence (Q8TBX8 1-421): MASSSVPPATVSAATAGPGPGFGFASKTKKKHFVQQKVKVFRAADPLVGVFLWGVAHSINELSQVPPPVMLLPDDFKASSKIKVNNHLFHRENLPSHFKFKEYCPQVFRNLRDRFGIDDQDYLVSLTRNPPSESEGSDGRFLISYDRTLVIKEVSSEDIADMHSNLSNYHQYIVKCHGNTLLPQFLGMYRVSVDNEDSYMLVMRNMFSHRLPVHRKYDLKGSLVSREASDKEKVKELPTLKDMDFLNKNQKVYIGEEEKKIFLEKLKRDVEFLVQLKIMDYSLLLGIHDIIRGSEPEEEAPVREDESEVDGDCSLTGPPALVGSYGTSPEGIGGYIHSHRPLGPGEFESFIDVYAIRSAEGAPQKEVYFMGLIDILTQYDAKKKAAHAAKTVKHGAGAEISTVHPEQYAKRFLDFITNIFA
# Description: The binding of compounds to PI5P4Kγ in intact cells was assessed using an InCell Pulse thermal stabilisation assay (DiscoverX). […] The plate was then incubated for 60 min in the dark prior to luminescence reading using a Pherastar FSX plate reader (BMG Labtech).
# (§1) Statistical analysis was performed using nonparametric testing in Prism 8 (GraphPad). Activity pIC50 values and in vivo binding pEC50 values were estimated using a 4-parameter fit (Dotmatics).
# [2] = biological target: T2, PI5P4Kγ+ (Homo sapiens, UniProt Q8TBX8, D138G/D197E/E133P/E135D/E153T/E196G/G136S/G139A/N195G/S132L/S134N); assay: ADP-Glo inhibition assay; type: biochemical; details: for IC50: ADP-Glo; for PI5P4Kγ+ LE: ligand efficiency from PI5P4Kγ+ pIC50
# T2 construct: GST (N, cleaved yes); made in house; host or cells: E. coli BL21(DE3), pGEX6P
# T2 sequence (Q8TBX8 with tags, fused parts or gaps INS131LPN/S132D/E133S/S134Q/E135A/G136R/D138G/G139A/E153T/N195G/E196G/D197E): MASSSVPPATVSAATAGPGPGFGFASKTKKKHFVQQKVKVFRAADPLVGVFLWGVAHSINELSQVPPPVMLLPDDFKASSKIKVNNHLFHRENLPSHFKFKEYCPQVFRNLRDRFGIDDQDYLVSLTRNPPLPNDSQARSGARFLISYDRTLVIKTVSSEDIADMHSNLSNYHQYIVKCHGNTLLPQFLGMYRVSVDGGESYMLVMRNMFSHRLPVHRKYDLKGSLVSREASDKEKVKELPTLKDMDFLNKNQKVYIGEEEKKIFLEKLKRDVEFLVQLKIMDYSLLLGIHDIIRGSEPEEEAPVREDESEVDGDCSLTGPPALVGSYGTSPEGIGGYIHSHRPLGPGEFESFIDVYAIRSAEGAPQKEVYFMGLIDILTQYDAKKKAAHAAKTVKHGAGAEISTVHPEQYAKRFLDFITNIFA
# Description: Recombinant mutant PI5P4Kγ+ was prepared essentially as described previously.[25] […] Cultures were induced with 0.4 mM IPTG and probe sonicated in the presence of protease inhibitors. The GST fusion protein of PI5P4Kγ+ was harvested by binding to glutathione sepharose beads (Cytiva) and cleaved in situ with 50U of PreScission protease (Cytiva) for 4 h at 4 °C. The cleaved protein was further purified by size-exclusion chromatography (AKTA Pure, Cytiva). The protein purity was confirmed by sodium dodecyl sulphate–polyacrylamide gel electrophoresis, and the concentration was determined by colorimetric assay (Bio-Rad).
# as §1
# [3] = system: PI5P4Kα; details: bioluminescence assay; cited from earlier work
# [4] = biological target: T1, PI5P4Kγ-WT; assay: Thermal shift assay; details: read-out: ΔTm PI5P4Kγ WT, thermal shift, compound 63 μM
# [5] = biological target: T3, PI5P4Kβ-WT (Homo sapiens, UniProt P78356); assay: ADP-Glo inhibition assay; details: for PI5P4Kβ pIC50: ADP-Glo
# T3 sequence (P78356 1-416): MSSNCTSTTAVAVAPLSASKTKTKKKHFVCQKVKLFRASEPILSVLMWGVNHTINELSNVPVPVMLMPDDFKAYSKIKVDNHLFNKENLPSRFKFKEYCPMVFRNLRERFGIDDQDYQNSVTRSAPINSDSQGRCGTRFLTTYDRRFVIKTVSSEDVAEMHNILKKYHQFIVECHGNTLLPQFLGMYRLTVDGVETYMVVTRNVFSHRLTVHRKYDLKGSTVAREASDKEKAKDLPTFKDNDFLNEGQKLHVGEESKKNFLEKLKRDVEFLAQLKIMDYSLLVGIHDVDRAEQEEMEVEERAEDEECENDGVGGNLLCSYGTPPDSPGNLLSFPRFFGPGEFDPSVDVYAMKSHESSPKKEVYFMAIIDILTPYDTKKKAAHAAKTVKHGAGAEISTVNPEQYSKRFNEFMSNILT
# Description: (§2) To enable direct comparisons, Promega’s ADP-Glo reporter assay was developed using a mutant form of the kinase. […] To mitigate concerns about being misled by the use of the PI5P4Kγ+ construct and the possible introduction of PI5P4Kα activity into the molecules, our screening cascade included the measurement of ADP-Glo activity at PI5P4Kα-WT (and PI5P4Kβ-WT to fully understand emerging selectivity profiles).
# [6] = biological target: T4, PI5P4Kα-WT (Homo sapiens, UniProt P48426); assay: ADP-Glo inhibition assay; details: for PI5P4Kα pIC50: ADP-Glo
# T4 sequence (P48426 1-406): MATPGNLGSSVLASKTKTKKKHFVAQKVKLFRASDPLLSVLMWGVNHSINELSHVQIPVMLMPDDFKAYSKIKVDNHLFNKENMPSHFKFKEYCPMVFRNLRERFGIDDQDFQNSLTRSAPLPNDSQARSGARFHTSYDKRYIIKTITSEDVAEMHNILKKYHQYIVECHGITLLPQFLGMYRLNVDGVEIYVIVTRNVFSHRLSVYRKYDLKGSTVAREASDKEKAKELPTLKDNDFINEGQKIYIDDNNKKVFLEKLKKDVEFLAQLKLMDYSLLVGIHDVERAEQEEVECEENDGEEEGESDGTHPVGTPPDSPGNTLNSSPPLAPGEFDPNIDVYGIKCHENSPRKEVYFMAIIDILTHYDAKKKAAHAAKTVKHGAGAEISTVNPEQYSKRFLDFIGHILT
# Description: as §2
# [7] = Kinetic solubility; type: physicochemical; details: PBS buffer, PBS pH 7.4
# Description: Kinetic solubility analysis was performed by Charles River Laboratories Inc. (ADME-SOP-01). Compound in
# DMSO at 10 mM was diluted to 200 µM in both DMSO and buffer (0.1 M PBS, pH 7.4, 2% DMSO final), and
# an aliquot of the 200 µM DMSO solution was diluted to 10 µM, and all dilutions were equilibrated for 2 hours. […]
# Compound 9 was purchased from Am binter (Amb16536894) and was determined by UPLC to have purity >95%.
# All other compounds were synthesised as described below , and all tested compounds have purity >95% by UPLC
# [8] = Plasma protein binding; type: in vitro ADME; details: Mouse plasma protein binding; read-out: mPPB (converted)
# Description: Plasma protein binding analysis was performed by Charles River Laboratories Inc. (ADME-SOP-90). Briefly, compounds in DMSO (10 µM, 0.5% DMSO final) were added to mouse plasma and dialysed against buffer for 4 hours at 37 °C. The compound concentration in each of the plasma and buffer compartments was determined by mass spectrometry and used to calculate the percentage compound bound. […]
# [9] = Caco-2 cell permeability; type: in vitro ADME; details: human; for Papp A→B at 1 h, 10 µM: Caco-2, apical-to-basolateral
# Description: Permeability: bi-directional Caco-2 cell permeability was performed by Charles River Laboratories Inc. (ADME-SOP-49). Briefly, compounds were administered at 10 µM (1% DMSO final) to the apical or basolateral side of a polarised Caco-2 cell monolayer, then incubated at 37 °C for 60 minutes before appearance on the opposite side of the monolayer was determined by mass spectrometry. The efflux ratio (ER) is calculated from the ratio of B-A […]
# [10] = Liver microsomal stability; type: in vitro ADME; details: liver microsomes; Human liver microsomal hepatic stability; read-out: HLM t1/2
# [11] = Chromatographic LogD (HPLC method); type: physicochemical; details: pH 7.4, read-out: mchrom log D7.4
# Description: 5-100% gradient of MeCN in 50mM NH4OAc in H 2O adjusted to pH 7.4. […]
# [12] = biological target: PI5P4Kγ; set-up: method as in Rosenthal 2011, Davis 2011, Karaman 2008, Klaeger 2017; details: public kinase panel data; ref Rosenthal 2011, Davis 2011, Karaman 2008, Klaeger 2017; cited from earlier work
# [13] = mutant PI5P4Kγ+ construct, read-out: PI5P4Kγ+ pIC50 (converted)
Compound,ΔTm at 63 µM [4],"IC50 [2, 13]",PI5P4Kβ pIC50 [5],PI5P4Kα pIC50 [6],solubility at 2 h [7],"fraction unbound at 4 h, 10 µM [8]",half-life at 1 µM [10],also measured
"CN(C)C/C=C/C(=O)Nc1ccc(C(=O)Nc2cccc(Nc3cc(-c4c[nH]c5ccccc45)ncn3)c2)cc1 [Compound 3, THZ-P1-2]",–,–,–,–,–,–,–,"IC50 [1]: 1300 nM; IC50 ([2]; new data, read-out: PI5P4Kγ+ IC50): 0.13 µM; IC50 [3]: 950 nM"
Cc1ccc(-n2ccc3c(Nc4cccc(NC(=O)c5ccc(NC(=O)/C=C/CN(C)C)cc5)c4)ncnc32)cc1 [Compound 4],–,–,–,–,–,–,–,IC50 [3]: 1300 nM
FC(F)(F)c1ccccc1-c1nc(NCC2CCCCC2)c2ccccc2n1 [Compound 10],-0.8 °C,> 50.1 µM,<4.6,<4.3,–,–,–,–
FC(F)(F)c1ccccc1-c1nc(NCc2ccccc2)c2ccccc2n1 [Compound 11],4.6 °C,6.31 µM,<4.6,<4.3,–,–,–,PI5P4Kγ+ LE [2]: 0.26
FC(F)(F)c1ccccc1-c1nc(NCc2ccccn2)c2ccccc2n1 [Compound 14],6.3 °C,3.16 µM,<4.6,<4.3,9 µM,< 0.01,31 min,"Papp A→B at 1 h, 10 µM [9]: 85 ×10⁻⁶ cm/s"
CC(C)c1ccccc1-c1nc(NCc2ccccn2)c2ccccc2n1 [Compound 22],–,–,<4.6,<4.3,< 5 µM,< 0.01,37 min,chromatographic logD [11]: 5.7
CC(C)c1ccccc1-c1nc(NC(C)c2ccccn2)c2ccccc2n1 (stereo not drawn) [Compound 29],0.2 °C,39.8 µM,<4.6,<4.3,–,–,–,PI5P4Kγ+ LE [2]: 0.22
Cc1cnc(-c2ccccc2C(F)(F)F)nc1NCc1ccccn1 [Compound 35],3.9 °C,10 µM,<4.6,<4.3,113 µM,0.03,41 min,"PI5P4Kγ+ LE [2]: 0.28; chromatographic logD [11]: 4.2; Papp A→B at 1 h, 10 µM [9]: 106 ×10⁻⁶ cm/s; efflux ratio at 1 h, 10 µM ([9]; Caco-2 efflux ratio (B-A/A-B), read-out: ER): 0.5"
FC(F)(F)c1ccccc1-c1nc(NCc2ccccn2)c2cccnc2n1 [Compound 38],–,–,<4.6,<4.3,6 µM,0.01,100 min,chromatographic logD [11]: 3.2
"Cc1nc(CN(C)c2ncnc3ccc(-c4ccc5c(c4)OCO5)cc23)cs1 [ML106, reference compound]",–,10 µM,–,–,–,–,–,IC50 [6]: > 50.1 µM; PI5P4Kγ pKD [12]: 6.4
"Cc1nc(CNc2ncnc3ccc(-c4ccc5c(c4)OCO5)cc23)cs1 [ML197, reference compound]",–,3.98 µM,–,–,–,–,–,IC50 [6]: > 50.1 µM; PI5P4Kγ pKD [12]: 6.6
"CC(=O)c1c(C)c2cnc(Nc3ccc(N4CCNCC4)cn3)nc2n(C2CCCC2)c1=O [Palbociclib, reference compound]",–,–,–,–,–,–,–,IC50 [5]: > 25.1 µM; PI5P4Kγ pKD [12]: 5.8
